Assays:
Assay type in all cases: binding
[1] = tested on: d(A3GAGGAA3); experiment: Thermal UV denaturation (Tm), parallel target d(A3GAGGAA3); conditions: for Tm (cooling) / Tm (heating): parallel N/5′, 5 μM each in TE buffer pH 7, incubated overnight at 4° C.
Method: (§1) The N-caps investigated consisted of a series of arenyl and aliphatic carboxylic acids. […] Thermal UV denaturation (Tm) data for the equilibria between N-cap-CTCCT and d(A3GAGGAA3) (SEQ. ID NO.: 5) (N/5′ or parallel orientation) and N-cap-CTCCT and d(A3AGGAGA3) (SEQ. ID NO.: 4) (N/3′ or antiparallel orientation) are collected in Table 2. Thermal UV denaturation curves were obtained with sample solutions made by combining the N-capped (αPNA and ssDNA components (5 μM each) in TE buffer (10 mM Tris-HCl, 1 mM EDTA, pH 7). These solutions were then incubated overnight at 4° C.

[2] = tested on: d(A3AGGAGA3); experiment: Thermal UV denaturation (Tm), antiparallel target d(A3AGGAGA3); conditions: antiparallel N/3′; 5 μM each in TE buffer pH 7, incubated overnight at 4° C.
Method: as §1

[3] = tested on: d(TA3G5A3T); experiment: Thermal denaturation (Tm) of complex with d(TA3G5A3T); conditions: for Tm (cooling) / Tm (heating): Table 3, N-4-(cyclohexyl)butyryl cap
Method: The α-helical secondary structure (˜26%) of these backbone 1 αPNAs in the absence of DNA was confirmed by circular dichroism (CD) studies in H2O. Both the N-terminal linked (b1) and C-terminal-linked (b1′) cysteine dimers formed complexes with d(A10) in H2O (Table 1, entries 1 and 2). […] The homothymine b1αPNAs required a relatively long incubation period (up to 4 days at 4° C. until constant absorbance was reached) due to the slow kinetics of annealing.
(§2) (Cf. Corey, D. R. J. Am. Chem. Soc. 1995, 117, 9373–9374). […] Even the T5(b2) module hybridized with d(A10) (SEQ ID NO.: 2)—albeit weakly as expected for a complex held together by only A•T base pairs (entry 5). […] This implies that equilibration is being achieved during the cooling cycle. This Tm is 20° C. higher than that of C5(b1)•d(TA3G5A3T) in H2O (compare entries 6 and 7) and 35° C. higher than the corresponding DNA•DNA duplex (in TE-buffer+150 mM NaCl). […] (Marky, L. A.; Breslauer, K. J. Biopolymers 1987, 26, 1601–1620). Added salt was expected to disrupt favorable charge—charge interactions between cationic αPNAs and anionic DNA.
(§3) This reduction in melting temperature presumably arises from residual hydration of the mismatched nucleobases and provides additional support for our proposed Watson-Crick binding model.

[4] = tested on: d(A3GGAGGA3); experiment: CD titration (Job plot) with d(A3GGAGGA3); conditions: 258 nm, 5° C., total concentration 12 μM, water
Method: Spectra were recorded at 5° C. using a JASCO J-600 CD spectro-polarimeter. Samples having a total concentration ([αPNA]+[DNA]) of 12 μM were made up in doubly deionized water and placed in a stoppered optical quartz cell (1 cm pathlength). Dry air was purged through the sample compartment. Each data point represents the average of eight (baseline corrected) points. […] This is in line with the PAGE experiment with T5(b2)-dimer and d(C3T(TC2)2A10C(TC2)3) (SEQ. ID NO.: 6).

[5] = tested on: d(A3AGGAGA3); experiment: Thermal UV denaturation (Tm), antiparallel target d(A3AGGAGA3); conditions: Table 1; antiparallel (N/3′) orientation
[6] = tested on: d(A3GGAGGA3); experiment: Thermal denaturation (Tm) of complex with d(A3GGAGGA3)
Method: as §2, §3

[7] = Table 3, N-4-(cyclohexyl)butyryl cap

Row | Substance | Tm (cooling) [1] [°C] | Tm (heating) [1] [°C] | Tm (heating) [2] [°C] | other results
1 | 4-(p-nitrophenyl)butyryl-CTCCT [p-NO2C6H4(CH2)3CO] | 37.8 | 41.6 | 34.4 | 
2 | Ac-Cys^Acm-Lys-(Ser^C-Ala2-Lys)2-Ser^T-(Ala2-Lys-Ser^C)2-Gly-Lys-NH2 [CCTCC(b2)] |  |  |  | Tm ([3]; TE-buffer): 38 °C; CD intensity minimum [4]: 50 mol % αPNA; Tm [5]: 32 °C; Tm ([1]; Table 1, parallel (N/5′) orientation): 37 °C; Tm ([6]; Table 1): 49 °C
3 | 3-cyclopentylpropionyl-CTCCT [C5H9CH2CH2CO] | 38.2 | 43.7 | 33.8 | 
4 | 4-(1-pyrenyl)butyryl-CTCCT [1-pyrenyl(CH2)3CO] | 43.8 | 42.6 | 39.0 | 
5 | 4-phenylbutyryl-CTCCT [C6H5(CH2)3CO] | 38.5 | 41.8 | 33.6 | 
6 | n-butyryl-CTCCT [CH3CH2CH2CO] | 36.7 | 40.0 | 30.2 | 
7 | n-hexanoyl-CTCCT [CH3CH2CH2CH2CH2CO] | 35.0 | 41.0 | 33.4 | 
8 | 4-(2-naphthyl)butyryl-CTCCT [2-naphthyl(CH2)3CO] | 40.0 | 42.7 | 36.3 | 
9 | 4-(p-methoxyphenyl)butyryl-CTCCT [p-MeOC6H4(CH2)3CO] | 37.0 | 41.3 | 34.2 | 
10 | 4-cyclohexylbutyryl-CCCCC [C6H11(CH2)3CO-CCC CC] |  |  |  | Tm (cooling) [3]: 66 °C; Tm (heating) [3]: 65 °C; Tm (heating) ([3]; listed as N-4-(cyclohexyl)butyryl-CCCCC): 64.9 °C
11 | 4-cyclohexylbutyryl-CTCCT [C6H11CH2CH2CH2CO] | 43.7 | 47.9 | 33.4 | Tm increase compared to the parent N-acetylated αPNA ([1]; parallel, heating, cooling): 11–12 °C
12 | 4-cyclohexylbutyryl-CCTCC [C6H11(CH2)3CO-CCT CC] |  |  |  | Tm (cooling) [3]: 46 °C; Tm (heating) [3]: 50 °C; lowering of Tm (cooling) by a single base-pair mismatch ([3]; mismatched complex): 10 °C; lowering of Tm (heating) by a single base-pair mismatch ([3]; mismatched complex): 15 °C; Tm (cooling) [6, 7]: 51 °C; Tm (heating) [6, 7]: 60 °C; Tm (heating) ([6]; Table 3, N-4-(cyclohexyl)butyryl cap, listed as N-4-(cyclohexyl)butyryl-CCTCC): 60.8 °C

Source: patent publication US7183394B1, “Helical nucleopeptides” (priority 2000, dated 2007)
